Structures are written as SMILES. Where a SMILES comes first, the peptide text is derived from it. Bridges are numbered along the chain shown (N, C = ends). [ ]: non-standard residue; d: D form. 2Nal = N[C@@H](Cc1ccc2ccccc2c1)C(=O)O; Cba = N[C@@H](CC1CCC1)C(=O)O; S5 = C=CCCC[C@](C)(N)C(=O)O

This test concerns Colo320DM. In words: Colo320DM cell viability. The class given is cell-based, human. An excerpt:
In some embodiments, a polypeptide described herein inhibits binding of BLC9 to β-catenin when assessed in a cell-viability assay. In some embodiments, the cell-viability assay is a CellTiterGlo luminescent assay, wherein the viability of cells is quantitatively measured. Various cell lines, transformed cell lines or primary cells derived from a healthy subject or subject suffering from a disease can be used in this assay.
Usually IC50 stands for the concentration that gives 50% inhibition. A high value points to weaker potency in that assay. In turn, `CC[C@H](C)[C@@H]1NC(=O)[C@@](C)(NC(=O)[C@H](CCCNC(=N)N)NC(=O)[C@H](CC(C)C)NC(=O)[C@@H](NC(=O)[C@H](CCC(N)=O)N(C)C(=O)[C@H](CC(C)C)NC(C)=O)[C@@H](C)O)CCCC=CCCC[C@@](C)(C(=O)N[C@@H](CC2CCC2)C(=O)N[C@@H](Cc2ccc3ccccc3c2)C(=O)NCCC(=O)NCCC(N)=O)NC(=O)[C@H](CCCNC(=N)N)NC(=O)[C@H](CCC(N)=O)NC1=O` (single isomer, unassigned) [SEQ ID NO: 111, L(N-methylQ)TLRXIQRX(CBA)(2-Nal)(β-Ala)(β-Ala)] displayed an IC50 of 3.07 µM. Regarding `CC[C@H](C)[C@@H]1NC(=O)[C@@](C)(NC(=O)[C@H](CCCNC(=N)N)NC(=O)[C@H](CC(C)C)NC(=O)[C@@H](NC(=O)[C@H](CCC(N)=O)NC(=O)[C@H](CC(C)C)NC(=O)[C@H](CO)NC(=O)[C@H](CCCNC(=N)N)NC(=O)[C@H](CCC(N)=O)NC(=O)[C@H](CCCNC(=N)N)N(C)C(=O)[C@H](Cc2c[nH]cn2)NC(C)=O)[C@@H](C)O)CCCC=CCCC[C@@](C)(C(=O)N[C@@H](CC2CCC2)C(=O)N[C@@H](Cc2ccc3ccccc3c2)C(N)=O)NC(=O)[C@H](CCCNC(=N)N)NC(=O)[C@H](CCC(N)=O)NC1=O` (single isomer, unassigned) [SEQ ID NO: 158, H(R-Me)QRSLQTLRXIQRX(CBA)(2-Nal)], half-maximal inhibition (IC50) was put at 3.32 µM. `CC[C@H](C)[C@@H]1NC(=O)[C@@](C)(NC(=O)[C@H](CCCNC(=N)N)NC(=O)[C@H](CC(C)C)NC(=O)[C@@H](NC(=O)[C@H](CCC(N)=O)NC(=O)[C@H](CC(C)C)NC(=O)[C@H](CO)NC(=O)[C@H](CCCNC(=N)N)NC(=O)[C@H](CCC(N)=O)NC(=O)[C@H](CCCNC(=N)N)N(C)C(=O)[C@H](Cc2c[nH]cn2)NC(C)=O)[C@@H](C)O)CCCC=CCCC[C@@](C)(C(=O)N[C@@H](CC2CCC2)C(=O)N[C@@H](Cc2ccc3ccccc3c2)C(N)=O)NC(=O)[C@H](CCCNC(=N)N)NC(=O)[C@H](CCC(N)=O)NC1=O` (single isomer, unassigned) [SEQ ID NO: 166, H(N-methylR)QRSLQTLRXIQRX(CBA)(2-Nal)] gave a concentration for half-maximal inhibition (IC50) of 4.17 µM. This IC50 and that of the compound before are within 1.5-fold of each other. The compound `CC[C@H](C)[C@@H]1NC(=O)[C@@](C)(NC(=O)[C@H](CCCNC(=N)N)NC(=O)[C@H](CC(C)C)NC(=O)[C@@H](NC(=O)[C@H](CCC(N)=O)NC(=O)[C@H](CC(C)C)NC(=O)[C@H](CO)NC(=O)[C@H](CCCNC(=N)N)NC(=O)[C@H](CCC(N)=O)NC(=O)[C@H](CCCNC(=N)N)NC(=O)[C@H](Cc2c[nH]cn2)NC(C)=O)[C@@H](C)O)CCCC=CCCC[C@@](C)(C(=O)N[C@@H](Cc2ccc(Cl)cc2)C(=O)N[C@@H](Cc2ccc3ccccc3c2)C(N)=O)NC(=O)[C@H](CCCNC(=N)N)NC(=O)[C@H](CCC(N)=O)NC1=O` (single isomer, unassigned) [SEQ ID NO: 179, HRQRSLQTLRXIQRX(Phe-4-Cl)(2-Nal)] came in with an IC50 of 4.68 µM. With `CC[C@H](C)[C@@H]1NC(=O)[C@@](C)(NC(=O)[C@H](CCCNC(=N)N)NC(=O)[C@H](CC(C)C)NC(=O)[C@@H](NC(=O)[C@H](CCC(N)=O)NC(=O)[C@H](CC(C)C)NC(=O)[C@H](CO)NC(=O)[C@H](CCCNC(=N)N)NC(=O)[C@H](CCC(=O)O)NC(=O)[C@H](CCCNC(=N)N)NC(C)=O)[C@@H](C)O)CCCC=CCCC[C@@](C)(C(=O)N[C@@H](CC(C)C)C(=O)N[C@@H](Cc2ccc3ccccc3c2)C(N)=O)NC(=O)[C@H](CCCNC(=N)N)NC(=O)[C@H](CCC(N)=O)NC1=O` [SEQ ID NO: 5, RERSLQTLRXIQRXL(2-Nal)] (Ac-RERSLQTLR[S5]IQR[S5]L[2Nal]-NH2; staple 10-14), the IC50 was 6.8 µM. `CC[C@H](C)[C@@H]1NC(=O)[C@@](C)(NC(=O)[C@H](CCCNC(=N)N)NC(=O)[C@H](CC(C)C)NC(=O)[C@@H](NC(=O)[C@H](CCC(N)=O)NC(=O)[C@H](CC(C)C)NC(=O)[C@H](CO)NC(=O)[C@H](CCCNC(=N)N)NC(=O)[C@H](CCC(=O)O)NC(=O)[C@H](CCCNC(=N)N)NC(=O)[C@H](Cc2c[nH]cn2)NC(C)=O)[C@@H](C)O)CCCC=CCCC[C@@](C)(C(=O)N[C@@H](CC(C)C)C(=O)N[C@@H](Cc2ccc3ccccc3c2)C(N)=O)NC(=O)[C@H](CCCNC(=N)N)NC(=O)[C@H](CCC(N)=O)NC1=O` [SEQ ID NO: 6, HRERSLQTLRXIQRXL(2-Nal)] (Ac-HRERSLQTLR[S5]IQR[S5]L[2Nal]-NH2; staple 11-15) gave a half-inhibitory concentration (IC50) of 5.3 µM.

Compound `CC[C@H](C)[C@@H]1NC(=O)[C@@](C)(NC(=O)[C@H](CCCNC(=N)N)NC(=O)[C@H](CC(C)C)NC(=O)[C@@H](NC(=O)[C@H](CCC(N)=O)NC(=O)[C@H](CC(C)C)NC(=O)[C@H](CO)NC(=O)[C@H](CCCNC(=N)N)NC(=O)[C@H](CCC(=O)O)NC(=O)[C@H](CCCNC(=N)N)NC(=O)[C@H](Cc2c[nH]cn2)NC(=O)[C@H](CCC(=O)O)NC(C)=O)[C@@H](C)O)CCCC=CCCC[C@@](C)(C(=O)N[C@@H](CC(C)C)C(=O)N[C@@H](Cc2ccc3ccccc3c2)C(N)=O)NC(=O)[C@H](CCCNC(=N)N)NC(=O)[C@H](CCC(N)=O)NC1=O` [SEQ ID NO: 7, EHRERSLQTLRXIQRXL(2-Nal)] (Ac-EHRERSLQTLR[S5]IQR[S5]L[2Nal]-NH2; staple 12-16) displayed an IC50 of 9.1 µM. For the compound `CC[C@H](C)[C@@H]1NC(=O)[C@@](C)(NC(=O)[C@H](CCCNC(=N)N)NC(=O)[C@H](CC(C)C)NC(=O)[C@@H](NC(=O)[C@H](CCC(N)=O)NC(=O)[C@H](CC(C)C)NC(=O)[C@H](CO)NC(=O)[C@H](CCCNC(=N)N)NC(=O)[C@H](CCC(=O)O)NC(=O)[C@H](CCCNC(=N)N)NC(=O)[C@H](Cc2c[nH]cn2)NC(=O)[C@H](CCC(=O)O)NC(=O)[C@H](CC(C)C)NC(=O)[C@H](CCC(N)=O)NC(C)=O)[C@@H](C)O)CCCC=CCCC[C@@](C)(C(=O)N[C@@H](CC(C)C)C(=O)N[C@@H](Cc2ccc3ccccc3c2)C(N)=O)NC(=O)[C@H](CCCNC(=N)N)NC(=O)[C@H](CCC(N)=O)NC1=O` [SEQ ID NO: 8, QLEHRERSLQTLRXIQRXL(2-Nal)] (Ac-QLEHRERSLQTLR[S5]IQR[S5]L[2Nal]-NH2; staple 14-18), the IC50 turned out to be 6.3 µM. Consider `CC[C@H](C)[C@@H]1NC(=O)[C@@](C)(NC(=O)[C@H](CCCNC(=N)N)NC(=O)[C@H](CC(C)C)NC(=O)[C@@H](NC(=O)[C@H](CCC(N)=O)NC(=O)[C@H](CC(C)C)NC(=O)[C@H](CO)NC(=O)[C@H](CCCNC(=N)N)NC(=O)[C@H](CCC(=O)O)NC(=O)[C@H](CCCNC(=N)N)NC(=O)[C@H](Cc2c[nH]cn2)NC(=O)[C@H](CCC(=O)O)NC(C)=O)[C@@H](C)O)CCCC=CCCC[C@@](C)(C(=O)N[C@@H](CC2CCC2)C(=O)N[C@@H](Cc2ccc3ccccc3c2)C(N)=O)NC(=O)[C@H](CCCNC(=N)N)NC(=O)[C@H](CCC(N)=O)NC1=O` [SEQ ID NO: 9, EHRERSLQTLRXIQRX(CBA)(2-Nal)] (Ac-EHRERSLQTLR[S5]IQR[S5][Cba][2Nal]-NH2; staple 12-16), for which the midpoint of inhibition, the IC50, lay at 1.9 µM. Against the preceding compound, the IC50 is about 3.3-fold lower. In turn, `CC[C@H](C)[C@@H]1NC(=O)[C@@](C)(NC(=O)[C@H](CCCNC(=N)N)NC(=O)[C@H](CC(C)C)NC(=O)[C@@H](NC(=O)[C@H](CCC(N)=O)NC(=O)[C@H](CC(C)C)NC(=O)[C@H](CO)NC(=O)[C@H](CCCNC(=N)N)NC(=O)[C@H](CCC(=O)O)NC(=O)[C@H](CCC(N)=O)NC(=O)[C@H](Cc2c[nH]cn2)NC(C)=O)[C@@H](C)O)CCCC=CCCC[C@@](C)(C(=O)N[C@@H](CC(C)C)C(=O)N[C@@H](Cc2ccc3ccccc3c2)C(N)=O)NC(=O)[C@H](CCCNC(=N)N)NC(=O)[C@H](CCC(N)=O)NC1=O` [SEQ ID NO: 11, HQERSLQTLRXIQRXL(2-Nal)] (Ac-HQERSLQTLR[S5]IQR[S5]L[2Nal]-NH2; staple 11-15) returned an IC50 of 1.51 µM. `CC[C@H](C)[C@@H]1NC(=O)[C@@](C)(NC(=O)[C@H](CCCNC(=N)N)NC(=O)[C@H](CC(C)C)NC(=O)[C@@H](NC(=O)[C@H](CCC(N)=O)NC(=O)[C@H](CC(C)C)NC(=O)[C@H](CO)NC(=O)[C@H](CCCNC(=N)N)NC(=O)[C@H](CCC(=O)O)NC(=O)[C@H](CCCNC(=N)N)NC(C)=O)[C@@H](C)O)CCCC=CCCC[C@@](C)(C(=O)N[C@@H](CC2CCC2)C(=O)N[C@@H](Cc2ccc3ccccc3c2)C(N)=O)NC(=O)[C@H](CCCNC(=N)N)NC(=O)[C@H](CCC(N)=O)NC1=O` [SEQ ID NO: 13, RERSLQTLRXIQRX(CBA)(2-Nal)] (Ac-RERSLQTLR[S5]IQR[S5][Cba][2Nal]-NH2; staple 10-14) gave an IC50 of 1.61 µM. With `CC[C@H](C)[C@@H]1NC(=O)[C@@](C)(NC(=O)[C@H](CCCNC(=N)N)NC(=O)[C@H](CC(C)C)NC(=O)[C@@H](NC(=O)[C@H](CCC(N)=O)NC(=O)[C@H](CC(C)C)NC(=O)[C@H](CO)NC(=O)[C@H](CCCNC(=N)N)NC(=O)[C@H](CCC(=O)O)NC(=O)[C@H](CCCNC(=N)N)NC(=O)[C@H](Cc2c[nH]cn2)NC(C)=O)[C@@H](C)O)CCCC=CCCC[C@@](C)(C(=O)N[C@@H](CC2CCC2)C(=O)N[C@@H](Cc2ccc3ccccc3c2)C(N)=O)NC(=O)[C@H](CCCNC(=N)N)NC(=O)[C@H](CCC(N)=O)NC1=O` [SEQ ID NO: 14, HRERSLQTLRXIQRX(CBA)(2-Nal)] (Ac-HRERSLQTLR[S5]IQR[S5][Cba][2Nal]-NH2; staple 11-15), the IC50 was found to be 1.49 µM. This IC50 and that of the compound before are within 1.5-fold of each other. Compound `CC[C@H](C)[C@@H]1NC(=O)[C@@](C)(NC(=O)[C@H](CCCNC(=N)N)NC(=O)[C@H](CC(C)C)NC(=O)[C@@H](NC(=O)[C@H](CCC(N)=O)NC(=O)[C@H](CC(C)C)NC(=O)[C@H](CO)NC(=O)[C@H](CCCNC(=N)N)NC(=O)[C@H](CCC(=O)O)NC(=O)[C@H](CCCNC(=N)N)NC(=O)[C@H](Cc2c[nH]cn2)NC(C)=O)[C@@H](C)O)CCCC=CCCC[C@@](C)(C(=O)N[C@@H](CC(C)C)C(=O)N[C@@H](Cc2ccc3ccccc3c2)C(N)=O)NC(=O)[C@H](C)NC(=O)[C@H](CCC(N)=O)NC1=O` [SEQ ID NO: 28, HRERSLQTLRXIQAXL(2-Nal)] (Ac-HRERSLQTLR[S5]IQA[S5]L[2Nal]-NH2; staple 11-15) returned an IC50 of 3.24 µM.

For the origin of these results see US11591365B2, “BCL9 peptides and variants thereof” (WntRx Pharmaceuticals Inc., priority 2017, dated 2023).
